Source: ChEMBL document CHEMBL5338753, “Stapled Peptides as Direct Inhibitors of Nrf2-sMAF Transcription Factors” (J Med Chem, 2023)
The source made the active and inactive calls. The rule behind the calls is not given here. Positions of bridges follow the written chain, without caps; N, C: chain ends. Non-standard residues stand in square brackets, D forms with d. Residues, ends and D or L forms follow the SMILES beside them. R5 = C=CCCC[C@@](C)(N)C(=O)O

Tests used:
[1] = Stability of compound assessed as proteinase K (unknown origin) mediated compound degradation at 55 uM measured upto 24 hrs by LC/MS analysis; type: ADME; details: human
A549 [2] = test: Synergistic antiproliferative activity against human A549 cells assessed as cell death at 25 uM incubated for 72 hrs in presence of 12 uM cisplatin by MTT assay (reference value: 66%); type: functional
A549 [3] = test: Synergistic antiproliferative activity against human A549 cells assessed as combination index at 50 uM incubated for 72 hrs in presence of 12 uM cisplatin by Chou-Talalay method; type: functional
[4] = Hemolytic activity against human red blood cells at 100 uM relative to control; type: toxicity, cell-based, Erythrocyte; details: red blood cells (erythrocytes), read-out: Activity
A549 [5] = test: Antiproliferative activity against human A549 cells assessed as cell death at 12.5 uM incubated for 72 hrs by MTT assay relative to control; type: functional
A549 [6] = test: Synergistic antiproliferative activity against human A549 cells assessed as combination index at 50 uM incubated for 72 hrs in presence of 6 uM cisplatin by Chou-Talalay method; type: functional
A549 [7] = test: Antiproliferative activity against human A549 cells assessed as cell death at 1.563 uM incubated for 72 hrs by MTT assay relative to control; type: functional
A549 [8] = test: Downregulation of ABCC1 mRNA level in human A549 cells at 50 uM incubated for 72 hrs by qPCR assay; type: functional, cell-based
A549 [9] = test: Synergistic antiproliferative activity against human A549 cells assessed as combination index at 25 uM incubated for 72 hrs in presence of 6 uM cisplatin by Chou-Talalay method; type: functional
A549 [10] = test: Synergistic antiproliferative activity against human A549 cells assessed as cell death at 6.25 uM incubated for 72 hrs in presence of 6 uM cisplatin by MTT assay (reference value: 46%); type: functional
A549 [11] = test: Synergistic antiproliferative activity against human A549 cells assessed as combination index at 3.125 uM incubated for 72 hrs in presence of 12 uM cisplatin by Chou-Talalay method; type: functional
A549 [12] = test: Downregulation of HMOX1 mRNA level in human A549 cells at 50 uM incubated for 72 hrs by qPCR assay; type: functional, cell-based
A549 [13] = test: Antiproliferative activity against human A549 cells assessed as cell death at 50 uM incubated for 72 hrs by MTT assay relative to control; type: functional
A549 [14] = test: Synergistic antiproliferative activity against human A549 cells assessed as cell death at 100 uM incubated for 72 hrs in presence of 6 uM cisplatin by MTT assay (reference value: 46%); type: functional
A549 [15] = test: Downregulation of TXN mRNA level in human A549 cells at 50 uM incubated for 72 hrs by qPCR assay; type: functional, cell-based
A549 [16] = test: Synergistic antiproliferative activity against human A549 cells assessed as cell death at 25 uM incubated for 72 hrs in presence of 6 uM cisplatin by MTT assay (reference value: 46%); type: functional
A549 [17] = test: Synergistic antiproliferative activity against human A549 cells assessed as combination index at 12.5 uM incubated for 72 hrs in presence of 12 uM cisplatin by Chou-Talalay method; type: functional
A549 [18] = test: Synergistic antiproliferative activity against human A549 cells assessed as cell death at 6.25 uM incubated for 72 hrs in presence of 12 uM cisplatin by MTT assay (reference value: 66%); type: functional
A549 [19] = test: Synergistic antiproliferative activity against human A549 cells assessed as combination index at 3.125 uM incubated for 72 hrs in presence of 6 uM cisplatin by Chou-Talalay method; type: functional
A549 [20] = test: Antiproliferative activity against human A549 cells assessed as cell death at 25 uM incubated for 72 hrs by MTT assay relative to control; type: functional
[21] = molecular target: T1, Nuclear factor erythroid 2-related factor 2 (Homo sapiens) (UniProt Q16236); test: Inhibition of human Nrf2 in HEK-293T cells expressing ARE-firefly luciferase and TK-Renilla luciferase at 50 to 100 uM incubated for 16 hrs by Dual-Luciferase reporter based luminometer analysis; type: cell-based; details: dose 50-100 µM
T1 sequence (whole entry): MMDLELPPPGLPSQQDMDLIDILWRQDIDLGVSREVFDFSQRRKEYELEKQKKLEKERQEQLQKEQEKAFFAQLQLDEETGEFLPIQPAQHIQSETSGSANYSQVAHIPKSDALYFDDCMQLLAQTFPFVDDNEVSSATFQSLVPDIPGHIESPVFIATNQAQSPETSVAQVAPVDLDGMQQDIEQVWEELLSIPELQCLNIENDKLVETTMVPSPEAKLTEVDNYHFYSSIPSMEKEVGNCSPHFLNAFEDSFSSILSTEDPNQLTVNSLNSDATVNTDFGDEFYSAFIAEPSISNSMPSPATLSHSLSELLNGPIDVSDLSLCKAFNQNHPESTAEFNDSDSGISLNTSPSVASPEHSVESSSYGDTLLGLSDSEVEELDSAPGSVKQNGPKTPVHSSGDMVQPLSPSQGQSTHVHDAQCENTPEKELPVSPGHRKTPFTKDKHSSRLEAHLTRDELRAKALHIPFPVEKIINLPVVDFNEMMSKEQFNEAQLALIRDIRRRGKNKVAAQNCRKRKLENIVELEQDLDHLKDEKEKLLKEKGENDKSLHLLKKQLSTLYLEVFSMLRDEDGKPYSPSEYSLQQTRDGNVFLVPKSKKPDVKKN

A549 [22] = test: Synergistic antiproliferative activity against human A549 cells assessed as cell death at 3.125 uM incubated for 72 hrs in presence of 12 uM cisplatin by MTT assay (reference value: 66%); type: functional
A549 [23] = test: Synergistic antiproliferative activity against human A549 cells assessed as combination index at 100 uM incubated for 72 hrs in presence of 6 uM cisplatin by Chou-Talalay method; type: functional
A549 [24] = test: Synergistic antiproliferative activity against human A549 cells assessed as cell death at 12.5 uM incubated for 72 hrs in presence of 6 uM cisplatin by MTT assay (reference value: 46%); type: functional
HEK-293T = test: Cytotoxicity against HEK-293T cells assessed as reduction in cell viability; type: toxicity, cell-based; details: human
A549 [25] = test: Antiproliferative activity against human A549 cells assessed as cell death at 3.125 uM incubated for 72 hrs by MTT assay relative to control; type: functional
A549 [26] = test: Synergistic antiproliferative activity against human A549 cells assessed as cell death at 12.5 uM incubated for 72 hrs in presence of 12 uM cisplatin by MTT assay (reference value: 66%); type: functional
A549 [27] = test: Downregulation of NQO2 mRNA level in human A549 cells at 50 uM incubated for 72 hrs by qPCR assay; type: functional, cell-based
A549 [28] = test: Synergistic antiproliferative activity against human A549 cells assessed as cell death at 1.563 uM incubated for 72 hrs in presence of 12 uM cisplatin by MTT assay (reference value: 66%); type: functional
Homo sapiens = species on record: Homo sapiens; test: Inhibition of human recombinant His-MBP-tagged Nrf2/recombinant His-tagged MafG heterodimer interaction with 5' FAM-labeled ARE at 0.2 uM preincubated for 5 mins with Nrf2 under shaking condition followed by MafG addition for 5 mins further incubated with ARE and measured after 10 mins by fluorescence polarization assay; details: time 20.0 min

## CC[C@H](C)[C@H](NC(C)=O)C(=O)N[C@H](C(=O)N[C@@H](CCC(=O)O)C(=O)N[C@@H](CC(C)C)C(=O)N[C@@H](CCC(=O)O)C(=O)N[C@]1(C)CCC/C=C\CCC[C@](C)(C(=O)N[C@@H](CC(C)C)C(=O)N[C@@H](CCCCN)C(=O)N[C@@H](CC(=O)O)C(=O)N[C@@H](CCC(=O)O)C(=O)N[C@@H](CCCCN)C(=O)N[C@@H](CCC(=O)O)C(N)=O)NC(=O)[C@H](CC(=O)O)NC(=O)[C@H](CC(C)C)NC(=O)[C@H](CC(=O)O)NC1=O)C(C)C (Ac-IVELE[R5]DLD[R5]LKDEKE-NH2; staple (Z) 6-10)
[1]
  Stability: Unstable
A549 [2]
  Activity: 87%
A549 [3]
  CI: 0.19
[4]
  hemolysis at 100 µM: 0.3%
A549 [5]
  Activity: 24%
A549 [6]
  CI: 0.42
A549 [7]
  Activity: 4%
A549 [8]
  Activity: Active
A549 [9]
  CI: 0.51
A549 [10]
  Activity: 59%
A549 [11]
  CI: 0.82
A549 [12]
  Activity: Active
A549 [13]
  Activity: 34%
A549 [14]
  Activity: 76%
A549 [15]
  Activity: Active
A549 [16]
  Activity: 68%
A549 [17]
  CI: 0.51
A549 [18]
  Activity: 79%
A549 [19]
  CI: 0.84
A549 [20]
  Activity: 30%
[21]
  inhibition: Active
A549 [22]
  Activity: 71%
A549 [23]
  CI: 0.42
A549 [24]
  Activity: 64%
HEK-293T
  Activity: Non-Toxic
A549 [25]
  Activity: 12%
A549 [26]
  Activity: 81%
A549 [27]
  Activity: Active
A549 [28]
  Activity: 67%
Homo sapiens
  inhibition: Active
